Test results: the supplement of paper PMC13380429

Columns and labels:
Conditions in all cases: 72 h
HepG2 [1] = experiment: relative viability EC50 (midpoint between 100% and the lowest measured viability); higher = less toxic
Vero E6 [2] = experiment: as above
U2OS [3] = experiment: as above
Calu-3 [4] = experiment: drug sensitivity score (DSS) for viability; higher = more toxic; extreme values may be limits of the assay
HepG2 [5] = experiment: as above
Caco-2 [6] = experiment: as above
Vero E6 [7] = experiment: as above
U2OS [8] = experiment: as above
Calu-3 [9] = experiment: cell viability relative to DMSO; higher = less toxic
HepG2 [10] = experiment: as above
Caco-2 [11] = experiment: as above
Vero E6 [12] = experiment: as above
U2OS [13] = experiment: as above
Calu-3 [14] = experiment: relative viability EC50 (midpoint between 100% and the lowest measured viability); higher = less toxic

| Structure (SMILES) | relative viability EC50 (HepG2 [1]) [nM] | relative viability EC50 (Vero E6 [2]) [µM] | relative viability EC50 (U2OS [3]) [nM] | drug sensitivity score (Calu-3 [4]) | drug sensitivity score (HepG2 [5]) | drug sensitivity score (Caco-2 [6]) | drug sensitivity score (Vero E6 [7]) | drug sensitivity score (U2OS [8]) | cell viability (Calu-3 [9]; 1 nM) [%] | cell viability (Calu-3 [9]; 10 nM) [%] | cell viability (Calu-3 [9]; 100 nM) [%] | cell viability (Calu-3 [9]; 1000 nM) [%] | cell viability (Calu-3 [9]; 10000 nM) [%] | cell viability (HepG2 [10]; 1 nM) [%] | cell viability (HepG2 [10]; 10 nM) [%] | cell viability (HepG2 [10]; 100 nM) [%] | cell viability (HepG2 [10]; 1000 nM) [%] | cell viability (HepG2 [10]; 10000 nM) [%] | cell viability (Caco-2 [11]; 1 nM) [%] | cell viability (Caco-2 [11]; 10 nM) [%] | cell viability (Caco-2 [11]; 100 nM) [%] | cell viability (Caco-2 [11]; 1000 nM) [%] | cell viability (Caco-2 [11]; 10000 nM) [%] | cell viability (Vero E6 [12]; 1 nM) [%] | cell viability (Vero E6 [12]; 10 nM) [%] | cell viability (Vero E6 [12]; 100 nM) [%] | cell viability (Vero E6 [12]; 1000 nM) [%] | cell viability (Vero E6 [12]; 10000 nM) [%] | cell viability (U2OS [13]; 1 nM) [%] | cell viability (U2OS [13]; 10 nM) [%] | cell viability (U2OS [13]; 100 nM) [%] | cell viability (U2OS [13]; 1000 nM) [%] | cell viability (U2OS [13]; 10000 nM) [%] | relative viability EC50 (Calu-3 [14]) [µM] |
| --- | --- | --- | --- | --- | --- | --- | --- | --- | --- | --- | --- | --- | --- | --- | --- | --- | --- | --- | --- | --- | --- | --- | --- | --- | --- | --- | --- | --- | --- | --- | --- | --- | --- | --- |
| CC(C)(C)c1ccc(NC(=O)N2CCN(c3ncccc3Cl)CC2)cc1 [BCTC] | > 10000 | > 10 | > 10000 | 1.1 | 0 | 3 | 0.5 | 0 | 98.1 | 101 | 99.5 | 102 | 71.2 | 99.3 | 92.7 | 96.7 | 102 | 93.3 | 88.8 | 99.6 | 92.8 | 89.9 | 62.2 | 99 | 101 | 100 | 94.4 | 86.1 | 99.3 | 106 | 97.4 | 101 | 95 |  |
| COC(=O)CCC(=O)CN [methyl-aminolevulinate] | > 10000 | > 10 | > 10000 | 0 | 0 |  | 0 | 0 | 101 | 96.5 | 98 | 100 | 93.4 | 83.8 | 98.4 | 94.5 | 84 | 87.8 |  |  |  |  |  | 97.1 | 89 | 99.5 | 88.8 | 105 | 90.5 | 96 | 96.8 | 97.3 | 104 | > 10 |
| CC(C)Cc1ccc([C@@H](C)C(=O)NS(C)(=O)=O)cc1 [reparixin] |  |  |  | 0 | 0 |  | 0 | 0 |  |  |  |  |  |  |  |  |  |  |  |  |  |  |  |  |  |  |  |  |  |  |  |  |  |  |
| NC(=S)N/N=C/c1coc2ccccc2c1=O.[Cl][Cu][Cl] [FPA-124] | > 10000 |  | > 10000 | 0 | 0 | 1 |  | 0 | 104 | 103 | 102 | 99 | 106 | 94.5 | 101 | 97.5 | 109 | 95.3 | 106 | 103 | 96.1 | 104 | 70.4 |  |  |  |  |  | 105 | 99.1 | 101 | 97.3 | 99.8 | > 10 |
| CC(C)CCN1c2nc(Nc3cc(F)c(O)c(F)c3)ncc2N(C)C(=O)[C@@H]1C [BI-D1870] |  | 1.74 |  | 3.5 | 2.4 | 1.8 | 6.1 | 1.4 | 96 | 107 | 90.2 | 83.7 | 63.1 | 105 | 92.8 | 102 | 97.6 | 58.9 | 95.1 | 102 | 97.5 | 96.6 | 71.1 | 105 | 98.7 | 96.5 | 86.2 | 30.9 | 102 | 103 | 99 | 98.7 | 71.4 |  |
| COc1ccc(C(=O)N2CCCC2=O)cc1 [aniracetam] |  |  |  | 0 | 0 |  | 0 | 0 |  |  |  |  |  |  |  |  |  |  |  |  |  |  |  |  |  |  |  |  |  |  |  |  |  |  |
| O=C(c1cn(Cc2cncn2Cc2ccc(Br)cc2)cc1-c1cccc2ccccc12)N1CCOCC1 | 972 |  | 1490 | 5.6 | 9.8 | 4.3 | 2.9 | 5.5 | 104 | 96.7 | 98.6 | 68.1 | 72.1 | 107 | 90.6 | 98.3 | 57.1 | 16.3 | 99.1 | 96.1 | 94.4 | 78.1 | 63.5 | 99.8 | 97.7 | 95.4 | 88.1 | 64.5 | 97.3 | 99.4 | 90.5 | 80.3 | 39.9 |  |
| Nc1ccc2ncnc(NCCc3ccc(Oc4ccccc4)cc3)c2c1 [EVP4593] | 149 |  |  | 0.3 | 18 | 4.3 | 4.4 | 6.3 | 106 | 98.9 | 97.7 | 92.1 | 86.5 | 109 | 109 | 78.1 | 20.2 | 19.4 | 104 | 96.9 | 88 | 78.4 | 74.5 | 93.5 | 90.2 | 91.1 | 73.3 | 77 | 103 | 96.3 | 94.7 | 67.4 | 64.5 | > 10 |
| Clc1ccc(C2(c3ccc(-c4cn[nH]c4)cc3)CCNCC2)cc1 [AT7867] |  | 1.55 | 2000 | 0.2 | 4.4 | 1.3 | 5.6 | 5.2 | 99.7 | 98.7 | 110 | 132 | 79.5 | 102 | 101 | 97.6 | 84.9 | 54.2 | 103 | 93.3 | 105 | 98.2 | 73.9 | 100 | 97 | 97.5 | 84.9 | 39.8 | 103 | 95.1 | 94.9 | 90.3 | 34.8 | > 10 |
| N#C/C(=C\c1ccc(O)c(O)c1)C(=O)NCCCc1ccccc1 [AG-555] |  | > 10 | > 10000 | 0 | 1.7 | 3.4 | 0.5 | 0 | 112 | 95.2 | 101 | 105 | 88.4 | 95.5 | 89.9 | 95.8 | 95.4 | 74.7 | 96.7 | 100 | 113 | 84.1 | 68.1 | 102 | 102 | 103 | 103 | 79.7 | 99 | 99.5 | 103 | 99.1 | 88.7 | > 10 |
| Cn1cnc2c(F)c(Nc3ccc(Br)cc3F)c(C(=O)NOCCO)cc21 [binimetinib] | 32.3 |  | 2200 | 14.1 | 23.5 | 8.1 | 11.5 | 4.1 | 94.7 | 77.5 | 66.4 | 59.9 | 37.2 | 96 | 83.6 | 38 | 23.7 | 20.8 | 94 | 87.3 | 77.2 | 73 | 65.6 | 97.2 | 92.4 | 72.6 | 56.5 | 51.2 | 97.9 | 91.4 | 92 | 93.4 | 43.9 | 0.078 |
| COc1cc(N2CCC(N3CCN(C)CC3)CC2)ccc1Nc1ncc(Cl)c(Nc2ccccc2P(C)(C)=O)n1 [brigatinib] |  | > 10 |  | 5.3 | 4.8 | 1.8 | 1.4 | 1.9 | 105 | 102 | 106 | 89.5 | 35.3 | 98.1 | 92.8 | 105 | 81.7 | 55 | 94.9 | 97 | 92.8 | 94 | 73 | 98.7 | 102 | 101 | 94.5 | 78.5 | 97.2 | 99.5 | 97.4 | 98.4 | 64.8 | 1.92 |
| C[C@H](Cc1ccc(O)c(O)c1)[C@@H](C)Cc1ccc(O)c(O)c1 [masoprocol] | > 10000 | > 10 | > 10000 | 0 | 0 | 9.6 | 1.4 | 0 | 95.5 | 108 | 93.4 | 93.6 | 93 | 98.3 | 94 | 94.5 | 101 | 97.1 | 88.3 | 83.1 | 72.1 | 78.6 | 55.5 | 102 | 91.6 | 88.6 | 91.5 | 81.3 | 92.1 | 104 | 97.7 | 97.8 | 95.9 | > 10 |
| Oc1ccc(Cl)cc1Cc1cc(Cl)ccc1O [dichlorophen] | > 10000 | > 10 | > 10000 |  | 1.1 | 5.9 | 0.3 | 0 |  |  |  |  |  | 105 | 89.4 | 96.9 | 97.9 | 76.6 | 107 | 88.9 | 108 | 70.1 | 54.6 | 106 | 99.4 | 104 | 97.5 | 86.7 | 101 | 95.1 | 96.7 | 99.7 | 93.5 |  |
| Cc1sc2c(c1C)C(c1ccc(Cl)cc1)=N[C@@H](CC(=O)Nc1ccc(O)cc1)c1nnc(C)n1-2 [OTX015] | 434 | 0.298 | 592 | 4.7 | 11.6 | 4.3 | 16.3 | 8.2 | 109 | 113 | 108 | 82.3 | 55.9 | 106 | 110 | 85.1 | 47.4 | 24.9 | 105 | 94.5 | 95.6 | 84.6 | 53.1 | 97.5 | 92.7 | 84.5 | 21.8 | 8 | 99.7 | 102 | 89.3 | 62.9 | 38.8 |  |
